We go through five molecules from PMC11051419, “Structural Insights into the Marine Alkaloid Discorhabdin G as a Scaffold towards New Acetylcholinesterase Inhibitors” (Marine Drugs, 2024).

pIC50, pKi: −log10 of the molar value. Read-outs that look alike come from different tables or passages of the source. Bounds are passed on as bounds.

Data set [1] concerns the target T1, human recombinant acetylcholinesterase (hAChE) (Homo sapiens, UniProt P22303).
T1 construct: purchased Sigma-Aldrich
Kind of data set: Inhibition of human recombinant acetylcholinesterase (modified Ellman method). Format: biochemical. The note with it: for pKi: Dixon plot, substrate 0.125, 0.25, 0.5 mM; for pKi / pIC50: 3 as acetate salt; for pIC50: Ellman method, pH 7.4, 25 °C; for type of inhibition against hAChE: kinetic analysis, Dixon plot (Figure S4). How it is done: (§1) The inhibition of cholinesterase activity was determined using a modification of the Ellman method, which was adapted for microtiter plates. Stock solutions of 3, 7, and 8 (2 mg/mL) were prepared in pure EtOH. […] Stock solutions of the potential inhibitors and the positive controls were added to the microtiter plate wells and progressively diluted in 100 mM potassium phosphate buffer (pH 7.4) to a final volume of 50 μL. Then, 100 μL acetylthiocholine chloride (1 mM) and 5,5′-dithiobis-2-nitrobenzoic acid (0.5 mM) in 100 mM potassium phosphate buffer (pH 7.4) was added into the microtiter plate wells. The cholinesterases that were used (eeAChE, hAChE, and BChE; all from Sigma-Aldrich, St. Louis, MO, USA) were dissolved in 100 mM potassium phosphate buffer (pH 7.4) to a final concentration of 0.0075 U/mL. Each cholinesterase solution (50 μL) was added into the microtiter plate wells to start the reaction, which was followed spectrophotometrically at 405 nm at 25 °C over 5 min using a kinetic microplate reader (Dynex Technologies Inc., Chantilly, VA, USA). Blank reactions without inhibitors were run with the appropriate dilutions of EtOH, and the readings were corrected according to the corresponding blanks. Each measurement was repeated at least three times. […] The data were analyzed using the OriginPro software (OriginPro 2021 (9.8), OriginLab Corporation, Northampton, MA, USA).
For orientation: DTNB colorimetry detects thiols as they appear.

In data set [2] the target is T2, electric eel acetylcholinesterase (eeAChE) (Electrophorus electricus, UniProt O42275).
T2 construct: purchased Sigma-Aldrich
Kind of data set: Inhibition of electric eel acetylcholinesterase (modified Ellman method). Format: biochemical. The note with it: for pKi: Dixon plot, substrate 0.125, 0.25, 0.5 mM; for pKi / pIC50: 3 as acetate salt; for pIC50: Ellman method, pH 7.4, 25 °C; for type of inhibition against eeAChE: kinetic analysis, Dixon plot (Figure S4). As to the method: as §1

Data set [3] deals with T3, horse serum butyrylcholinesterase (BChE) (Equus caballus, UniProt P81908).
T3 construct: human recombinant AChE (hAChE), and horse serum BChE; purchased Sigma-Aldrich; host or cells: horse serum
The data set can be described thus: Inhibition of horse serum butyrylcholinesterase (modified Ellman method). Format: biochemical. The conditions noted are these: for pIC50: Ellman method, pH 7.4, 25 °C, 3 as acetate salt; for type of inhibition against BChE: kinetic analysis, Dixon plot (Figure S4). How it is done:
as §1

The target in data set [4] is T3, horse serum butyrylcholinesterase (BChE). The conditions noted are these: cited from earlier work.
Data set [5] has as its target T2, electric eel acetylcholinesterase (eeAChE). The note with it: cited from earlier work.
For data set [6], the system named is neuromuscular transmission or skeletal muscle function. The note with it: electrophysiological study; cited from earlier work.
The target of data set [7] is T1, human recombinant acetylcholinesterase (hAChE). The note with it: cited from earlier work.
Where [8] appears, read: discorhabdin G as trifluoroacetate (TFA) salt, ref Botić et al. [5].

T3 sequence (P81908 whole entry): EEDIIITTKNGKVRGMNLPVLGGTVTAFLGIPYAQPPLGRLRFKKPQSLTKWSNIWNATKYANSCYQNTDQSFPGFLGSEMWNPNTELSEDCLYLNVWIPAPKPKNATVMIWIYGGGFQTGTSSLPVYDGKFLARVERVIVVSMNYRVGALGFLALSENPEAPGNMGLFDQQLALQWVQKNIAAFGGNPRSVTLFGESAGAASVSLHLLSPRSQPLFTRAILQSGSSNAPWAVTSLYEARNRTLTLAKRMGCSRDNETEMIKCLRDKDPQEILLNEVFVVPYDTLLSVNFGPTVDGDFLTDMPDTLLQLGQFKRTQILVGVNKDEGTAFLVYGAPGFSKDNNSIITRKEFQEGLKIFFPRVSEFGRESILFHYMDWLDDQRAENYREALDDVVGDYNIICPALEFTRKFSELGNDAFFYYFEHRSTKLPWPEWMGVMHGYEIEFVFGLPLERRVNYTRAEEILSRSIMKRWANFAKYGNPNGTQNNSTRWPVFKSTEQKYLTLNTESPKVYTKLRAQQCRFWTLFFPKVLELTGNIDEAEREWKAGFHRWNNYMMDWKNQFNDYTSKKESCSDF
T1 sequence (P22303 32-614): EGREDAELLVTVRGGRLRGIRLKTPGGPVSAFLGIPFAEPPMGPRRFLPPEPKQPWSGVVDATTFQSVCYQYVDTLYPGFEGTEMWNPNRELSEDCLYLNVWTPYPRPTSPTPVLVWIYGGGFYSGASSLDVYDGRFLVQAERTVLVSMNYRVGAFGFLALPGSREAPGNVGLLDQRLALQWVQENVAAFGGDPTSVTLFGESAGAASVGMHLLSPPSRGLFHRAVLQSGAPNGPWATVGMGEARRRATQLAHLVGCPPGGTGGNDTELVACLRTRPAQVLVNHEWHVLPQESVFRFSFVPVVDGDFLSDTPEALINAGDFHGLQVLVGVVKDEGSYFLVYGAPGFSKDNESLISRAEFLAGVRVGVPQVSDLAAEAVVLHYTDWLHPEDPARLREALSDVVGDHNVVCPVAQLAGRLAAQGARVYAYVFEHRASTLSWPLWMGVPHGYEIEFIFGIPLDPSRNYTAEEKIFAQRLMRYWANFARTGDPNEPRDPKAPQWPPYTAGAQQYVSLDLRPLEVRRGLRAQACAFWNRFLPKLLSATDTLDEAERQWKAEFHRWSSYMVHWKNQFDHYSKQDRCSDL
T2 sequence (O42275 24-633): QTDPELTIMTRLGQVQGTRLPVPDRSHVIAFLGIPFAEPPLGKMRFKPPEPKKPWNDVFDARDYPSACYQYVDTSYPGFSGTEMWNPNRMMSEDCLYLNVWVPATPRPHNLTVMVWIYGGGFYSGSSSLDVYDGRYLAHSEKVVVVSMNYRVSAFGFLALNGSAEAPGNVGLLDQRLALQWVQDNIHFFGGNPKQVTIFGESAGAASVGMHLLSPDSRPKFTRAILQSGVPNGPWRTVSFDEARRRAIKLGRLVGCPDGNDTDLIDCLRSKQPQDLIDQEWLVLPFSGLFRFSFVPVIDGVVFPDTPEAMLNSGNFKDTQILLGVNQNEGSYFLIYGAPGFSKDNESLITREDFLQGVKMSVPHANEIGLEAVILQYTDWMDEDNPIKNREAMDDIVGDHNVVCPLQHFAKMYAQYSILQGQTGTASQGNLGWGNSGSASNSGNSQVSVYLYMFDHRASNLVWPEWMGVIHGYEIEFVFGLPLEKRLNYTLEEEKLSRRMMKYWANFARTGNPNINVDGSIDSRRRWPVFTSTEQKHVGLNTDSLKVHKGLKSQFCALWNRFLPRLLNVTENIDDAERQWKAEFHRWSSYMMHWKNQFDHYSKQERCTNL

Broadly, the pKi is the negative decadic logarithm of the Ki, by convention in mol/L. Broadly, the pIC50 is the IC50 on a negative log10 scale, so that one unit is a factor of ten. Regarding `Cc1nc2c3n1CCN=C3c1ccccc1C2=O` [Compound 3, 5-methyl-2H-benzo[h]imidazo[1,5,4-de]quinoxalin-7(3H)-one], in data set [1], the negative-log Ki (pKi) was 5.24, the pIC50 is 4.77 and the “type of inhibition against hAChE” value is given as “reversible competitive”. In addition, in data set [2], the negative logarithm of the Ki (pKi) is 5.14, the pIC50 was 4.87 and the “type of inhibition against eeAChE” value is “reversible competitive”. For the same molecule, in data set [3], the pIC50 is less than 3.40 and the “type of inhibition against BChE” value is given as “reversible competitive”.

As for `Cc1nc2c(o1)C(=O)c1ccccc1C2=O` [Compound 7, 2-methylnaphtho[2,3-d]oxazole-4,9-dione], in data set [1], the negative logarithm of the Ki (pKi) is 4.30, the negative logarithm of the IC50 (pIC50) was 3.63 and the “type of inhibition against hAChE” value is given as “reversible competitive”. Besides, in data set [2], the pKi is 4.19, the pIC50 is 3.73 and the “type of inhibition against eeAChE” value was “reversible competitive”. This molecule had a negative logarithm of the Ki (pKi) in data set [3] (Dixon plot, substrate 0.125, 0.25, 0.5 mM) of 4.30. In data set [3], the negative-log IC50 (pIC50) is 3.84 and the “type of inhibition against BChE” value is on record as “reversible competitive”.

As to `CC(=O)NC1=C2NCCN=C2c2ccccc2C1=O` [Compound 8, N-(6-oxo-2,3,4,6-tetrahydrobenzo[f]quinoxalin-5-yl)acetamide], the negative logarithm of the IC50 (pIC50) in data set [1], in data set [2] and in data set [3] was less than 3.40 each time.

In the case of `CN(C)C(=O)Oc1cccc([N+](C)(C)C)c1` [Neostigmine methylsulfate, reference compound], the negative-log IC50 (pIC50) in data set [2] was 5.22; in data set [3] it was 4.08.

discorhabdin G [Compound 1]: the negative-log IC50 (pIC50) was 5.15 in data set [4] (setting [8]), 5.89 in data set [5] (setting [8]) and 3.94 in data set [7] (setting [8]). The pKi in data set [4] (setting [8]) is 5.30; in data set [5] (setting [8]), 5.80; in data set [7] (setting [8]), 4.25. The “type of inhibition against BChE” value in data set [4] (previously observed) was “reversible competitive”. In addition, the “type of inhibition against eeAChE” value in data set [5] (previously observed) was “reversible competitive”. Besides, in data set [6], the “adverse effects on neuromuscular transmission or skeletal muscle function” value is “no adverse effects”. Also, in data set [7] (previously observed), the “type of inhibition against hAChE” value is reported as “reversible competitive”.
